{"source": "paper PMC3792642", "about": "(Acta Crystallographica Section D: Biological Crystallography, 2013)", "test_system": "MtbDsbA catalytic Cys89 to Ala mutant", "format": "binding, Mycobacterium tuberculosis H37Rv", "conditions": "ITC, under the conditions tested", "note": "Peptide text beside a SMILES is read from it."}
{"compound": "CC(=O)N[C@@H](Cc1ccc(O)cc1)C(=O)N[C@H](C(=O)N1CCC[C@H]1C(=O)N[C@@H](CO)C(=O)N[C@@H](CS)C(=O)N[C@@H](CC(N)=O)C(=O)N[C@H](C(N)=O)C(C)C)C(C)C", "note": "[YVPSCNV] (Ac-YVPSCNV-NH2)", "values": [{"measurement": "Binding of VKOR peptide to the MtbDsbA catalytic Cys89 to Ala mutant", "result": "abolished binding"}]}
